According to article PMC9469500, “Targeting an Initiator Allergen Provides Durable and Expansive Protection against House Dust Mite Allergy” (ACS Pharmacology & Translational Science, 2022):

System: sensitized Balb/c mice
Assay: HDM extract challenge in sensitized Balb/c mice (BAL flow cytometry)
Type: in vivo
Settings: HDM 10; i.t. 2 h prior to challenge; BAL 48 h
Procedure: Mice (female Balb/c 20 ± 2 g, Charles River) were isolator maintained in ventilated cages (Allentown IVC Racks, 36 Mini Isolator System, USA) that had been prepared for use by prior autoclaving. Environmental controls were 22–24 °C/60–80% relative humidity on a 12 h light/dark cycle. Animals were allowed ad libitum access to reverse osmosis-purified water and food (MF-18 laboratory rodent diet). Where prestudy serum samples were mandated, these were taken from the retro-orbital sinus on acclimatization in the isolator facility. Animals were randomly assigned to groups and sensitized to the HDM extract or treated with the vehicle on days 0, 7, and 14. […] Animals were anesthetized with propofol 48 h later (AstraZeneca, 10 mg/mL, 50 μL/mouse, i.v.), and terminal blood samples were taken from the retro-orbital sinus. BAL (3 × 0.5 mL aliquots of PBS) was performed, and the returns were combined for enumeration.
Flow cytometry (FACS) of BAL fluid was performed with a BD FACSAria instrument (Becton Dickinson Biosciences, USA) and the FACSDiva software. Analyses were performed by operators who were unaware of the sample identity. […]

Structure (SMILES): CC(C)[C@H](NC(=O)[C@H](C)NC(=O)[C@@H](NC(=O)c1ccccc1)C(C)(C)C)C(=O)C(=O)NCc1ccccc1 [Compound 1, N-{(S)-1-[(S)-1-((S)-1-benzylaminooxalyl-2-methyl-propylcarbamoyl)-ethylcarbamoyl]-2,2-dimethyl-propyl}-benzamide]
- doses required for good activity against the HDM extract: > 0.01 mg/kg
